# Source: ChEMBL document CHEMBL6177980 (J Med Chem, 2025)
# Active and inactive are the calls of the source. The calls are words filed in the database; no cut-off is given here.
# Experiments:
# [1] = test system: Mammarenavirus choriomeningitidis; test: In vivo antiviral activity against LCMV infected in C57BL/6-Prf1tm1Sdz/J mouse assessed as improvement in body weight loss at 300 mg/kg, po qd treated for 7 days; type: functional, organism-based; settings: time 7.0 day
# [2] = test system: Mammarenavirus choriomeningitidis; test: In vivo antiviral activity against LCMV infected in C57BL/6-Prf1tm1Sdz/J mouse assessed as improvement in lymphocytes percentage at 300 mg/kg, po qd treated for 7 days; type: functional, organism-based; settings: time 7.0 day
# [3] = test system: Mammarenavirus choriomeningitidis; test: In vivo antiviral activity against LCMV infected in C57BL/6-Prf1tm1Sdz/J mouse assessed as improvement in platelet count at 300 mg/kg, po qd treated for 7 days; type: functional, organism-based; settings: time 7.0 day
# [4] = test system: Mammarenavirus choriomeningitidis; test: In vivo antiviral activity against LCMV infected in C57BL/6-Prf1tm1Sdz/J mouse assessed as animal survival at 300 mg/kg, po qd treated for 7 days; type: functional, organism-based; settings: time 7.0 day
# [5] = Oral bioavailability in fasted Cynomolgus monkey administered orally by LC-MS/MS analysis; type: ADME, organism-based, Macaca fascicularis; settings: in vivo
# [6] = Stability of compound at pH 6.8 assessed as change in purity at 1 mg/ml incubated for 4 hrs by HPLC analysis; type: physicochemical; settings: buffer, pH 6.8, 4 h
# [7] = AUC (0 to t) in fasted Sprague-Dawley rat at 16.5 mg/kg, po by LC-MS/MS analysis; type: ADME, organism-based; settings: in vivo
# [8] = Stability of compound at pH 4.0 assessed as change in purity at 1 mg/ml incubated for 12 hrs by HPLC analysis; type: physicochemical; settings: buffer, pH 4, 12 h
# [9] = Stability of compound at pH 4.0 assessed as change in purity at 1 mg/ml incubated for 24 hrs by HPLC analysis; type: physicochemical; settings: buffer, pH 4, 24 h
# [10] = Half life in fasted Cynomolgus monkey administered orally by LC-MS/MS analysis; type: ADME, Macaca fascicularis; settings: in vivo, route po
# [11] = Stability of compound at pH 4.0 assessed as change in purity at 1 mg/ml incubated for 4 hrs by HPLC analysis; type: physicochemical; settings: buffer, pH 4, 4 h
# [12] = Stability of compound at pH 6.8 assessed as change in purity at 1 mg/ml incubated for 24 hrs by HPLC analysis; type: physicochemical; settings: buffer, pH 6.8, 24 h
# [13] = Stability of compound at pH 1.5 assessed as change in purity at 1 mg/ml incubated for 4 hrs by HPLC analysis; type: physicochemical; settings: buffer, pH 1.5, 4 h
# [14] = Stability of compound at pH 6.8 assessed as change in purity at 1 mg/ml incubated for 12 hrs by HPLC analysis; type: physicochemical; settings: buffer, pH 6.8, 12 h
# [15] = Cmax in fasted Sprague-Dawley rat at 16.5 mg/kg, po by LC-MS/MS analysis; type: ADME, organism-based; settings: in vivo
# [16] = Stability of compound at pH 1.5 assessed as change in purity at 1 mg/ml incubated for 24 hrs by HPLC analysis; type: physicochemical; settings: buffer, pH 1.5, 24 h
# [17] = Stability of compound at pH 1.5 assessed as change in purity at 1 mg/ml incubated for 12 hrs by HPLC analysis; type: physicochemical; settings: buffer, pH 1.5, 12 h
# [18] = AUC (0 to t) in fasted Sprague-Dawley rat at 27 mg/kg, po by LC-MS/MS analysis; type: ADME, organism-based; settings: in vivo
# [19] = Cmax in fasted Sprague-Dawley rat at 27 mg/kg, po by LC-MS/MS analysis; type: ADME, organism-based; settings: in vivo
# [20] = AUC (0 to t) in fasted Sprague-Dawley rat at 20 mg/kg, po by LC-MS/MS analysis; type: ADME, organism-based; settings: in vivo
# [21] = Cmax in fasted Sprague-Dawley rat at 20 mg/kg, po by LC-MS/MS analysis; type: ADME, organism-based; settings: in vivo
# [22] = Aqueous solubility of compound; type: physicochemical; settings: aqueous medium
# [23] = AUC (0 to t) in fasted Sprague-Dawley rat at 24 mg/kg, po by LC-MS/MS analysis; type: ADME, organism-based; settings: in vivo
# [24] = Cmax in fasted Sprague-Dawley rat at 24 mg/kg, po by LC-MS/MS analysis; type: ADME, organism-based; settings: in vivo
# [25] = AUC (0 to t) in fasted Sprague-Dawley rat at 17.5 mg/kg, po by LC-MS/MS analysis; type: ADME, organism-based; settings: in vivo
# [26] = Cmax in fasted Sprague-Dawley rat at 17.5 mg/kg, po by LC-MS/MS analysis; type: ADME, organism-based; settings: in vivo
Structure (SMILES),bioavailability [5] [%],Activity [6] [%],Activity [8] [%],Activity [9] [%],Activity [11] [%],Activity [12] [%],Activity [13] [%],Activity [14] [%],Activity [16] [%],Activity [17] [%],further results
NC(=O)c1nc(F)cnc1O,–,–,–,–,–,–,–,–,–,–,Activity [1]: inactive; Activity [2]: inactive; Activity [3]: inactive; Activity [4]: inactive
CC(C)C(=O)OCn1c(=O)ccn([C@@H]2O[C@](F)(COC(=O)C(C)C)[C@@H](O)[C@H]2O)c1=O,66.2,-1,-1.8,-3,-0.9,-4.1,-2,-2.4,-11.2,-6,AUC(0-t) [7]: 20100 ng·h/mL; half-life [10]: 6.84 h; Cmax [15]: 3140 ng/mL
O=C(OCn1c(=O)ccn([C@@H]2O[C@](F)(COC(=O)c3cccnc3)[C@@H](OC(=O)c3cccnc3)[C@H]2OC(=O)c2cccnc2)c1=O)c1cccnc1,–,–,–,–,–,–,–,–,–,–,AUC(0-t) [18]: 9080 ng·h/mL; Cmax [19]: 708 ng/mL
CC(C)C(=O)O[C@H]1[C@H](n2ccc(=O)n(COC(=O)c3cccnc3)c2=O)O[C@](F)(COC(=O)c2cccnc2)[C@H]1OC(=O)C(C)C,102,-3.4,-0.8,-0.8,-0.6,-15.9,-2.8,-8.1,-7.8,-4.8,–
CC(=O)OC[C@@]1(F)O[C@@H](n2ccc(=O)n(COC(=O)c3cccnc3)c2=O)[C@H](OC(C)=O)[C@@H]1OC(C)=O,100,-1.6,-0.1,-0.1,0,-8.6,-3,-4.3,-15.7,-8.5,AUC(0-t) [20]: 15700 ng·h/mL; Cmax [21]: 3120 ng/mL; solubility [22]: 700 µg/mL
CC(C)C(=O)OCn1c(=O)ccn([C@@H]2O[C@](F)(COC(=O)C(C)C)[C@@H](OC(=O)C(C)C)[C@H]2OC(=O)C(C)C)c1=O,–,0,0,0,0,-1.8,-1.5,-0.4,-10.8,-3.7,–
CC(C)C(=O)OC[C@@]1(F)O[C@@H](n2ccc(=O)n(COC(=O)[C@@H](N)C(C)C)c2=O)[C@H](OC(=O)C(C)C)[C@@H]1OC(=O)C(C)C.Cl,–,-90.7,-1.2,-2.1,-0.6,-98.1,-0.9,-98.1,-5.2,-2.7,AUC(0-t) [23]: 11700 ng·h/mL; Cmax [24]: 1640 ng/mL
CC(=O)OCCOC(=O)n1c(=O)ccn([C@@H]2O[C@](F)(COC(=O)C(C)C)[C@@H](O)[C@H]2O)c1=O,–,–,–,–,–,–,–,–,–,–,AUC(0-t) [25]: 4300 ng·h/mL; Cmax [26]: 915 ng/mL
